From patent US20100137313A1 (ASTRAZENECA AB, priority 2008, published 2010)

Each molecule was assayed against S. pneumoniae Topoisomerase IV ATPase (ParE) (Streptococcus pneumoniae serotype 4, UniProt Q59961) (assay: S. pneumoniae Topoisomerase IV ATPase inhibition). Conditions: values marked * are an average of two or more data points.
S. pneumoniae Topoisomerase IV ATPase (ParE), sequence (Q59961 whole entry): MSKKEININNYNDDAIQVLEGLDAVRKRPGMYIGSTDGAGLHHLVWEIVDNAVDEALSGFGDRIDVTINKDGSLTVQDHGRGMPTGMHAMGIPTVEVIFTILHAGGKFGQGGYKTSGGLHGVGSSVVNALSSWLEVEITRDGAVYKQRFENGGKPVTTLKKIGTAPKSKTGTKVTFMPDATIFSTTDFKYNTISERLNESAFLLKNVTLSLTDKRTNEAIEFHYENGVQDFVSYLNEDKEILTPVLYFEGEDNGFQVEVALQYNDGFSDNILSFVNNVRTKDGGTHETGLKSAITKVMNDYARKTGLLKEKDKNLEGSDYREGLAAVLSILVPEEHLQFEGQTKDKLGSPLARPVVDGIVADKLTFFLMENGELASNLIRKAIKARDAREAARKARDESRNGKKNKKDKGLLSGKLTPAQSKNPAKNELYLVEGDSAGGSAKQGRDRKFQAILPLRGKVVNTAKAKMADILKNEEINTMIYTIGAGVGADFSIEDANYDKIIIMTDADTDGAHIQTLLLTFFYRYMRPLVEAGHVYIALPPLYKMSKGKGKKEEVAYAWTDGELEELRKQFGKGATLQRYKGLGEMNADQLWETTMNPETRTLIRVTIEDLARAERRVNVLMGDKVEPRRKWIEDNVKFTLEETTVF
Type: biochemical
Procedure, shortened: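 Phosphate-release ATPase assay: 1.25 nM ParE, 160 μM ATP, DNA-stimulated. Quench with malachite green/molybdate in 1 M HCl, read 650 nm; IC50 from 10-point dose series.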
In the case of “(E)-3-{3-[2-(3- Methoxy-5- tetrazol-1-yl- phenylamino)- 4-morpholin-4- yl-pyrimnidin-5- yl]-phenyl}- acrylic acid [Example 406]”, the “% Inh (13 μM) of S. pneumoniae Topoisomerase IV ATPase” value is reported as 99%.

Same assay, conditions: values marked * are an average of two or more data points, read-out: % Inh (13 μM) of S. pneumoniae Topoisomerase IV ATPase
With `COc1cc(F)cc(Nc2ncc(-c3cnc(OC)c(C(=O)O)c3)c(-n3nc(C(F)(F)F)cc3C)n2)c1` [Example 915, 5-(2-(3-fluoro-5-methoxyphenylamino)-4-(5-methyl-3-(trifluoromethyl)-1H-pyrazol-1-yl)pyrimidin-5-yl)-2-methoxynicotinic acid] the inhibition at 13 µM was 100%.
Work on `O=C(O)c1cc(-c2cnc(Nc3ccc(F)c(Cl)c3)nc2-n2ccc(C(F)(F)F)n2)cnc1OCC(F)(F)F` [Example 1135, 5-(2-(3-chloro-4-fluorophenylamino)-4-(3-(trifluoromethyl)-1H-pyrazol-1-yl)pyrimidin-5-yl)-2-(2,2,2-trifluoroethoxy)nicotinic acid] yielded an inhibition at 13 µM of 100%.
Molecule `COc1cc(Nc2ncc(-c3cnc(OC)c(C(=O)NOCCN4CCOCC4)c3)c(-n3ccc(C(F)(F)F)n3)n2)cc(OC)c1` [Example 1167, 5-(2-(3,5-dimethoxyphenylamino)-4-(3-(trifluoromethyl)-1H-pyrazol-1-yl)pyrimidin-5-yl)-2-methoxy-N-(2-morpholinoethoxy)nicotinamide] has an inhibition at 13 µM of 100%.
`CS(=O)(=O)NCCCNc1nc(Nc2ccc(F)c(Cl)c2)ncc1-c1cncnc1` [Ex 378, N-(3-(2-(3-chloro-4-fluorophenylamino)-5,5′-bipyrimidin-4-ylamino)propyl) methanesulfonamide] gave an inhibition at 13 µM of 75.2%.
With `CS(=O)(=O)N1CCN(c2nc(Nc3ccc(F)c(Cl)c3)ncc2-c2cccc(/C=C/C(=O)O)c2)CC1` [Example 302, (E)-3-(3-(2-(3-chloro-4-fluorophenylamino)-4-(4-(methylsulfonyl)piperazin-1-yl)pyrimidin-5-yl)phenyl)acrylic acid] the inhibition at 13 µM was 83%.
`COc1cc(Nc2ncc(-c3cnc(OC)c(-c4noc(=S)[nH]4)c3)c(-n3nc(C(F)(F)F)cc3C)n2)cc(OC)c1` [Example 974, 3-(5-(2-(3,5-dimethoxyphenylamino)-4-(5-methyl-3-(trifluoromethyl)-1H-pyrazol-1-yl)pyrimidin-5-yl)-2-methoxypyridin-3-yl)-1,2,4-oxadiazol-5(4H)-thione] was tested, and the inhibition at 13 µM was 89%.
Molecule `CCOC(=O)c1cncc(-c2cnc(Nc3ccc(F)c(Cl)c3)nc2NCCN2CCOCC2)c1` [Example 100, 5-[2-(3-Chloro-4-fluoro-phenylamino)-4-(2-morpholin-4-yl-ethylamino)-pyrimidin-5-yl]-nicotinic acid ethyl ester] has an inhibition at 13 µM of 74.2%.
For `CONC(=O)/C=C/c1cccc(-c2cnc(Nc3ccc(F)c(Cl)c3)nc2N2CCOCC2)c1` [Example 376, (E)-3-(3-(2-(3-chloro-4-fluorophenylamino)-4-morpholinopyrimidin-5-yl)phenyl)-N-methoxyacrylamide], the inhibition at 13 µM was 87.2%.
In the case of `CCOC(=O)c1cncc(-c2cnc(Nc3ccc(F)c(Cl)c3)nc2N2CCC(OC)CC2)c1` [Example 122, ethyl 5-[2-[3-chloro-4-fluorophenyl)amino]-4-(4-methoxypiperidin-1-yl)pyrimidin-5-yl]pyridine-3-carboxylate], the inhibition at 13 µM is reported as 57.9%.
With `O=C(O)c1cncc(-c2cnc(Nc3ccc(F)c(Cl)c3)nc2NCCn2cccn2)c1` [Example 260, 5-(2-[(3-chloro-4-fluorophenyl)amino]-4-{[2-(1H-pyrazol-1-yl)ethyl]amino}pyrimidin-5-yl)pyridine-3-carboxylic acid] the inhibition at 13 µM was 103%.
`COc1cc(Nc2ncc(-c3cnc(OC)c(C(=O)NS(=O)(=O)C(C)C)c3)c(-n3nc(C(F)(F)F)cc3C)n2)cc(OC)c1` [Example 819, 5-{2-[(3,5-dimethoxyphenyl)amino]-4-[5-methyl-3-(trifluoromethyl)-1H-pyrazol-1-yl]pyrimidin-5-yl}-2-methoxy-N-(propan-2-ylsulfonyl)pyridine-3-carboxamide] gave an inhibition at 13 µM of 100%.
